Experimental data reported in US20220275461A1, “DIAGNOSTICS AND METHODS FOR PROGNOSING RESPONSE TO IMMUNOTHERAPY BASED ON THE METHYLATION STATUS OF IMMUNE SYNAPSE GENE SIGNATURE” (H. LEE MOFFITT CANCER CENTER AND RESEARCH INSTITUTE, INC., priority 2019, published 2022).

How the values were obtained:
[1] = test system: epithelial cancer cell lines; experiment: PC1 scores of mock- or 5-azacitidine-treated cancer cell lines (GSE57342 dataset); assay type: cell-based; conditions: 26 epithelial cancer cell lines, mock- vs 5-azacitidine-treated; FIG. 18E
Text: The GSE57342 processed dataset was downloaded and cell lines with more than three Mock- and three 5-azacitidine-treated samples was selected for analysis.
We used the first and second principal component (a weighted average β-values among the CSG and ICG probes), as they account for the largest variability in the data, to represent the overall methylation status for 8,931 tumor and normal samples in the TCGA database. That is, PC=Σwixi, a weighted average β-values among the selected CSG and ICG probes, where xi represents gene i β-value, wi is the corresponding weight (loading coefficient) with Σwi^2=1, and the wi values maximize the variance of Σwixi. For each gene, a set of probes were selected using the following criteria to minimize noise, r<−0.2 (methylation vs gene expression) located in the TSS1500, TSS200 or the 5′UTR (Table 4). Each probe was centered but not scaled before PCA calculations.

[2] = test system: CD40 gene in CAMA1 cell line; conditions: mock- vs azacytidine-treated, FIG. 18F; cited from earlier work

In the case of Nc1ncn([C@@H]2O[C@H](CO)[C@@H](O)[C@H]2O)c(=O)n1 [5-azacytidine], the “PC1 score (hypermethylation of CSGs)” value [1] is given as “significant decrease in PC1 scores” and the “methylation status of CD40 gene” value [2] is given as “demethylation of CD40”.
